Test results: article PMC6270184, “Synthesis and Structure-Activity Relationships of Amino Acid Conjugates of Cholanic Acid as Antagonists of the EphA2 Receptor” (Molecules, 2013)
Where two headings read alike, the source gives them in different places.

Legend:
EphA2 receptor [1] = molecular target: T1, EphA2 receptor (Mus musculus, UniProt Q03145); conditions: cited from earlier work
EphA2 receptor [2] = molecular target: T1, EphA2 receptor; assay: ELISA displacement of ephrin-A1 binding from immobilized EphA2 receptor; conditions: for ability to disrupt the EphA2-ephrin-A1 interaction (in words): ELISA binding assay
Procedure: The pIC50 values of tested compounds are reported in Table 1, together with the corresponding standard deviations of the mean (SEM).
ELISA assays were performed as previously described. Briefly, compounds were stocked as 5 mM solutions in dimethyl sulfoxide (DMSO) and tested in displacing studies, starting from a concentration of 50 µM. […] The reaction was stopped with 3N HCl 100 µL/well and the absorbance was measured using an ELISA plate reader (Sunrise, TECAN, Männedorf, Switzerland) at 450 nm. IC50 values were determined using one-site competition non-linear regression analysis with Prism software (GraphPad Software Inc., San Diego, CA, USA).

TGR5 receptor = conditions: cited from earlier work
FXR = conditions: cited from earlier work
[3] = inhibition of biotinylated ephrin-A1-Fc binding to EphA2-Fc, means ± SEM from at least three independent experiments, read-out: pIC50±SEM (converted)
[4] = ref data from an unpublished study

T1 sequence (Q03145 with tags, fused parts or gaps limits assumed): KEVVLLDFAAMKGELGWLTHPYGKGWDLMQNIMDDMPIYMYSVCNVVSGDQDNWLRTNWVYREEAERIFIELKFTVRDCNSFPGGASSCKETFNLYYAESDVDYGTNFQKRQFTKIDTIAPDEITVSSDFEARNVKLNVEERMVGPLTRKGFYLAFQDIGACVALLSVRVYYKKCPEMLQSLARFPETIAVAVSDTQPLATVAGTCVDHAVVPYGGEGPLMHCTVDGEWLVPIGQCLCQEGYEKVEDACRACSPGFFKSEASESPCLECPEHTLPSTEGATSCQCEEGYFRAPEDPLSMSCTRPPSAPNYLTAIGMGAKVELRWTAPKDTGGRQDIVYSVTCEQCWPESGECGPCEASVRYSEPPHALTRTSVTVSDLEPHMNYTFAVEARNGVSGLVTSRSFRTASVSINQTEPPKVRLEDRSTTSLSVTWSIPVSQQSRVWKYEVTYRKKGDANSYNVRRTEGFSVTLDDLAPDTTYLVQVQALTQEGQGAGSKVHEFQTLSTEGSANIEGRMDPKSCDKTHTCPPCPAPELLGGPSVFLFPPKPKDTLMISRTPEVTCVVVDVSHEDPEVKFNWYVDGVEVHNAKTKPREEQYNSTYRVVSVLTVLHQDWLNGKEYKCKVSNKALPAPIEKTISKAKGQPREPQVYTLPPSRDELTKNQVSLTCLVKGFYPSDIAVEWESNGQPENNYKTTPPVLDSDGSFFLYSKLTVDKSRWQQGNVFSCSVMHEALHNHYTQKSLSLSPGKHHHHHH

SMILES	melting point [°C]	IC50 (EphA2 receptor [2]; [3]) [µM]	also measured
C[C@H](CCC(=O)O)[C@H]1CC[C@H]2[C@@H]3CCC4CCCC[C@]4(C)[C@H]3CC[C@]12C (some centres unmarked) [Compound 1, cholanic acid]			pIC50, inhibition of the EphA2-ephrin-A1 interaction (EphA2 receptor [1]): 4.91; IC50 (EphA2 receptor [2]): 12.3 µM
C[C@H](CCC(=O)NCC(=O)O)[C@H]1CC[C@H]2[C@@H]3CC[C@@H]4CCCC[C@]4(C)[C@H]3CC[C@]12C [Compound 2, N-(5β-cholan-24-oyl)glycine]	192 to 195		
COC(=O)CNC(=O)CC[C@@H](C)[C@H]1CC[C@H]2[C@@H]3CC[C@@H]4CCCC[C@]4(C)[C@H]3CC[C@]12C [Compound 3, Methyl N-(5β-cholan-24-oyl)glycinate]		> 316	ability to disrupt the EphA2-ephrin-A1 interaction (in words) (EphA2 receptor [2]): inactive
C[C@H](CCC(=O)NCCC(=O)O)[C@H]1CC[C@H]2[C@@H]3CC[C@@H]4CCCC[C@]4(C)[C@H]3CC[C@]12C [Compound 4, N-(5β-Cholan-24-oyl)-β-alanine]	152 to 155		
C[C@H](CCC(=O)NCCS(=O)(=O)O)[C@H]1CC[C@H]2[C@@H]3CC[C@@H]4CCCC[C@]4(C)[C@H]3CC[C@]12C [Compound 5, 2-[N-(5β-Cholan-24-oyl)amino]ethanesulfonic Acid]		> 316	ability to disrupt the EphA2-ephrin-A1 interaction (in words) (EphA2 receptor [2]): loss of inhibitory activity
C[C@H](CCC(=O)N[C@@H](Cc1ccccc1)C(=O)O)[C@H]1CC[C@H]2[C@@H]3CC[C@@H]4CCCC[C@]4(C)[C@H]3CC[C@]12C [Compound 6, N-(5β-Cholan-24-oyl)-L-phenylalanine]	189 to 192	21.4	
C[C@H](CCC(=O)N[C@H](Cc1ccccc1)C(=O)O)[C@H]1CC[C@H]2[C@@H]3CC[C@@H]4CCCC[C@]4(C)[C@H]3CC[C@]12C [Compound 7, N-(5β-cholan-24-oyl)-D-phenylalanine]	195 to 198	26.3	
C[C@H](CCC(=O)N[C@@H](Cc1c[nH]c2ccccc12)C(=O)O)[C@H]1CC[C@H]2[C@@H]3CC[C@@H]4CCCC[C@]4(C)[C@H]3CC[C@]12C [Compound 8, N-(5β-cholan-24-oyl)-L-tryptophan]	98 to 101	28.2	
C[C@H](CCC(=O)N[C@H](Cc1c[nH]c2ccccc12)C(=O)O)[C@H]1CC[C@H]2[C@@H]3CC[C@@H]4CCCC[C@]4(C)[C@H]3CC[C@]12C [Compound 9, N-(5β-cholan-24-oyl)-D-tryptophan]	141 to 145	63.1	
C[C@H](CCC(=O)O)[C@H]1CC[C@H]2[C@@H]3CC[C@@H]4C[C@H](O)CC[C@]4(C)[C@H]3CC[C@]12C [LCA, lithocholic acid]			agonism of TGR5 (in words) (TGR5 receptor): rather potent agonist; agonism of FXR (in words) (FXR): rather potent agonist
C[C@H](CCC(=O)N[C@@H](Cc1c[nH]c2ccccc12)C(=O)O)[C@H]1CC[C@H]2[C@@H]3CC[C@@H]4C[C@H](O)CC[C@]4(C)[C@H]3CC[C@]12C [PCM126/UniPR126]			activity on TGR5 receptor (in words) (TGR5 receptor; [4]): micromolar range; interaction with FXR (in words) (FXR; [4]): does not interact
